pIC50: −log10 of the molar value.

The values below come from patent publication US11370774B2, “Substituted benzofuran, benzopyrrole, benzothiophene, and structurally related complement inhibitors” (BioCryst Pharmaceuticals, Inc., priority 2018, dated 2022).

Sequence of Factor D (P00746 26-253): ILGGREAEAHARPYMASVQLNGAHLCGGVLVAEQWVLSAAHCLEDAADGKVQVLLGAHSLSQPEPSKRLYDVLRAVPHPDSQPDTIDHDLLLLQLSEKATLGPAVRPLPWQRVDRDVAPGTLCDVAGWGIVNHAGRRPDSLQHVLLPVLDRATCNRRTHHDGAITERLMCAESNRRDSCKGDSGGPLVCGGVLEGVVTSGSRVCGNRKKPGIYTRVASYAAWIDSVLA

The assay has as its target Factor D (Homo sapiens (Human), UniProt P00746). The experiment in a line: Factor D esterolytic assay (Z-Lys-SBzl substrate, DTNB, 405 nm). Type of assay: biochemical. The settings on record: Z-Lys-SBzl 1.29 mM, pH 7.5, 10% DMSO, tested a minimum of three times, read-out: Measured Ki (IC50) Value for Compounds: IC50. In outline: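 Thioester hydrolysis (Z-Lys-SBzl, 1.29 mM) by human Factor D ([…]) detected through DTNB color at 405 nm over 600 sec, minus 690 nm background. Buffer: 100 mM HEPES pH 7.5, 500 mM NaCl, 10% DMSO; optional room-temperature preincubation before substrate. IC50 derived from percent rate inhibition; at least three runs.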
With `NCc1cccc(-c2cc(COc3ccccc3CC(=O)O)cc3cc(-c4ccccc4)oc23)c1` [Compound 374f, 2-(2-((7-(3-(aminomethyl)phenyl)-2-phenylbenzofuran-5-yl)methoxy)phenyl)acetic acid], the pIC50 is > 6.00. With `CCc1ccc(CC(=O)O)c(OCc2cc(-c3ccnc(CN)c3F)c3occc3c2)c1` [Compound 375c, 2-(2-((7-(2-(aminomethyl)-3-fluoropyridin-4-yl)benzofuran-5-yl)methoxy)-4-ethylphenyl)acetic acid], the pIC50 was > 6.00. For `NCc1cccc(-c2cc(COc3ccccc3CC(=O)O)cc3cc(Cc4ccccc4)oc23)c1` [Compound 377e, 2-(2-((7-(3-(aminomethyl)phenyl)-2-benzylbenzofuran-5-yl)methoxy)phenyl)acetic acid], the pIC50 was > 6.00.

Take `CN(Cc1ccccc1CC(=O)O)c1cc(-c2cccc(CN)c2)c2occc2c1` [Compound 378d, 2-(2-(((7-(3-(aminomethyl)phenyl)benzofuran-5-yl)(methyl)amino)methyl)phenyl)acetic acid]: the pIC50 was > 6.00.

For the molecule `Cc1ccc(CC(=O)O)c(OCc2cc(-c3ccnc(CN)c3)c3occ(C(F)(F)F)c3c2)c1` [Compound 379c, 2-(2-((7-(2-(aminomethyl)pyridin-4-yl)-3-(trifluoromethyl)benzofuran-5-yl)methoxy)-4-methylphenyl)acetic acid], the pIC50 was > 6.00.

For `N[C@H](c1cc(-c2cc(COc3ccccc3CC(=O)O)cc3ccoc23)ccn1)C(F)(F)F` [Compound 380e, (R)-2-(2-((7-(2-(1-amino-2,2,2-trifluoroethyl)pyridin-4-yl)benzofuran-5-yl)methoxy)phenyl)acetic acid], the pIC50 is < 5.00. As for `N[C@@H](c1cc(-c2cc(COc3ccccc3CC(=O)O)cc3ccoc23)ccn1)C(F)(F)F` [Compound 381e, (S)-2-(2-((7-(2-(1-amino-2,2,2-trifluoroethyl)pyridin-4-yl)benzofuran-5-yl)methoxy)phenyl)acetic acid], the pIC50 was < 5.00. In the case of `Cc1coc2c(-c3cccc(CN)c3)cc(COc3ccccc3CC(=O)O)cc12` [Compound 382h, 2-(2-((7-(3-(aminomethyl)phenyl)-3-methylbenzofuran-5-yl)methoxy)phenyl)acetic acid], the pIC50 was > 6.00.

For the molecule `Cc1coc2c(-c3cccc(CN)c3F)cc(COc3ccccc3CC(=O)O)cc12` [Compound 383b, 2-(2-((7-(3-(aminomethyl)-2-fluorophenyl)-3-methylbenzofuran-5-yl)methoxy)phenyl)acetic acid], the pIC50 is > 6.00. Turning to `COc1ccc(CC(=O)O)c(OCc2cc(-c3cccc(CN)c3)c3occc3c2F)c1` [Compound 384c, 2-(2-((7-(3-(aminomethyl)phenyl)-4-fluorobenzofuran-5-yl)methoxy)-4-methoxyphenyl)acetic acid], the pIC50 is > 6.00. Take `COc1ccc(CC(=O)O)c(OCc2cc(-c3ccnc(CN)c3F)c3occc3c2F)c1` [Compound 385d, 2-(2-((7-(2-(aminomethyl)-3-fluoropyridin-4-yl)-4-fluorobenzofuran-5-yl)methoxy)-4-methoxyphenyl)acetic acid]: the pIC50 is > 6.00. Turning to `NCc1cccc(-c2cc(COc3ccc(F)cc3CC(=O)O)c(F)c3ccoc23)c1` [Compound 386c, 2-(2-((7-(3-(aminomethyl)phenyl)-4-fluorobenzofuran-5-yl)methoxy)-5-fluorophenyl)acetic acid], the pIC50 was > 6.00.

`NCc1cccc(-c2cc(COc3ccc(F)cc3CC(=O)O)c(F)c3ccoc23)c1F` [Compound 387b, 2-(2-((7-(3-(aminomethyl)-2-fluorophenyl)-4-fluorobenzofuran-5-yl)methoxy)-5-fluorophenyl)acetic acid]: the pIC50 was > 6.00. As to `NCc1nccc(-c2cc(COc3ccc(F)cc3CC(=O)O)c(F)c3ccoc23)c1F` [Compound 388d, 2-(2-((7-(2-(aminomethyl)-3-fluoropyridin-4-yl)-4-fluorobenzofuran-5-yl)methoxy)-5-fluorophenyl)acetic acid], the pIC50 is > 6.00. For `NCc1cc(-c2cc(COc3ccc(F)cc3CC(=O)O)c(F)c3ccoc23)ccn1` [Compound 389c, 2-(2-((7-(2-(aminomethyl)pyridin-4-yl)-4-fluorobenzofuran-5-yl)methoxy)-5-fluorophenyl)acetic acid], the pIC50 is > 6.00. `CCc1ccc(CC(=O)O)c(OCc2cc(-c3ccnc(CN)c3)c3oc(F)cc3c2)c1` [Compound 390c, 2-(2-((7-(2-(aminomethyl)pyridin-4-yl)-2-fluorobenzofuran-5-yl)methoxy)-4-ethylphenyl)acetic acid]: the pIC50 is > 6.00. For the molecule `NCc1cccc(-c2cc(COc3cc(-c4ccccc4)ccc3CC(=O)O)cc3ccoc23)c1F` [Compound 391f, 2-(3-((7-(3-(aminomethyl)-2-fluorophenyl)benzofuran-5-yl)methoxy)-[1,1′-biphenyl]-4-yl)acetic acid], the pIC50 was > 6.00. As for `NCc1cccc(-c2cc(COc3c(CC(=O)O)ccc4ccoc34)cc3ccoc23)c1` [Compound 392g, 2-(7-((7-(3-(aminomethyl)phenyl)benzofuran-5-yl)methoxy)benzofuran-6-yl)acetic acid], the pIC50 is > 6.00.

As for `NCc1cc(-c2cc(COc3cc(-c4ccccc4)ccc3CC(=O)O)cc3ccoc23)ccn1` [Compound 393d, 2-(3-((7-(2-(aminomethyl)pyridin-4-yl)benzofuran-5-yl)methoxy)-[1,1′-biphenyl]-4-yl)acetic acid], the pIC50 was > 6.00.

As for `NCc1nccc(-c2cc(COc3cc(-c4ccccc4)ccc3CC(=O)O)cc3ccoc23)c1F` [Compound 394c, 2-(3-((7-(2-(aminomethyl)-3-fluoropyridin-4-yl)benzofuran-5-yl)methoxy)-[1,1′-biphenyl]-4-yl)acetic acid], the pIC50 is > 6.00. On to `NCc1cccc(-c2cc(COc3cc(C4CCCC4)ccc3CC(=O)O)cc3ccoc23)c1` [Compound 395c, 2-(2-((7-(3-(aminomethyl)phenyl)benzofuran-5-yl)methoxy)-4-cyclopentylphenyl)acetic acid], for which the pIC50 is > 6.00.

As to `Cn1cc(-c2ccc(CC(=O)O)c(OCc3cc(-c4cccc(CN)c4)c4occc4c3)c2)cn1` [Compound 396e, 2-(2-((7-(3-(aminomethyl)phenyl)benzofuran-5-yl)methoxy)-4-(1-methyl-1H-pyrazol-4-yl)phenyl)acetic acid], the pIC50 is > 6.00. Regarding `COc1ccc(-c2ccc(CC(=O)O)c(OCc3cc(-c4cccc(CN)c4)c4occc4c3)c2)c(F)c1` [Compound 397e, 2-(3-((7-(3-(aminomethyl)phenyl)benzofuran-5-yl)methoxy)-2′-fluoro-4′-methoxy-[1,1′-biphenyl]-4-yl)acetic acid], the pIC50 was > 6.00. With `NCc1cccc(-c2cc(COc3cc(-c4ccc(F)cc4)ccc3CC(=O)O)cc3ccoc23)c1` [Compound 398c, 2-(3-((7-(3-(aminomethyl)phenyl)benzofuran-5-yl)methoxy)-4′-fluoro-[1,1′-biphenyl]-4-yl)acetic acid], the negative logarithm of the IC50 (pIC50) is > 6.00. On to `NCc1cccc(-c2cc(COc3c(CC(=O)O)ccc4ccccc34)cc3ccoc23)c1` [Compound 399d, 2-(1-((7-(3-(aminomethyl)phenyl)benzofuran-5-yl)methoxy)naphthalen-2-yl)acetic acid], for which the pIC50 was > 6.00. Next, `NCc1cccc(-c2cc(COc3ccc4ccccc4c3CC(=O)O)cc3ccoc23)c1` [Compound 400e, 2-(2-((7-(3-(aminomethyl)phenyl)benzofuran-5-yl)methoxy)naphthalen-1-yl)acetic acid]: > 6.00; `NCc1cccc(-c2cc(COc3cc4ccccc4cc3CC(=O)O)cc3ccoc23)c1` [Compound 401e, 2-(3-((7-(3-(aminomethyl)phenyl)benzofuran-5-yl)methoxy)naphthalen-2-yl)acetic acid]: > 6.00; `NCc1cccc(-c2cc(N(Cc3ccccc3CC(=O)O)C(=O)OCc3ccccc3)cc3ccoc23)c1` [Compound 404c, 2-(2-(((7-(3-(aminomethyl)phenyl)benzofuran-5-yl)((benzyloxy)carbonyl)amino)methyl)phenyl)acetic acid]: > 6.00. The figure for `NCc1ccc(CC(=O)O)c(OCc2cc(-c3ccnc(CN)c3F)c3occc3c2)c1` [Compound 405e, 2-(4-(aminomethyl)-2-((7-(2-(aminomethyl)-3-fluoropyridin-4-yl)benzofuran-5-yl)methoxy)phenyl)acetic acid] is > 6.00. Next, `NCc1cccc(-c2cc(COc3ccccc3CC(=O)O)cc3cc(CN)oc23)c1` [Compound 406e, 2-(2-((2-(aminomethyl)-7-(3-(aminomethyl)phenyl)benzofuran-5-yl)methoxy)phenyl)acetic acid]: > 6.00; `NCc1cccc(-c2cc(NC(=O)N3CCCC3CC(=O)O)cc3ccoc23)c1` (stereo not shown) [Compound 407d, 2-(1-((7-(3-(aminomethyl)phenyl)benzofuran-5-yl)carbamoyl)pyrrolidin-2-yl)acetic acid]: < 5.00. Take `NCc1cccc(-c2cc(NC(=O)[C@H]3CCCN3CC(=O)O)cc3ccoc23)c1` [Compound 408e, (R)-2-(2-((7-(3-(aminomethyl)phenyl)benzofuran-5-yl)carbamoyl)pyrrolidin-1-yl)acetic acid]: the pIC50 was < 5.00. Next, `Cc1cc2c(-c3cccc(CN)c3F)cc(COc3ccccc3CC(=O)O)cc2o1` [Compound 409f, 2-(2-((4-(3-(aminomethyl)-2-fluorophenyl)-2-methylbenzofuran-6-yl)methoxy)phenyl)acetic acid]: > 6.00; `NCc1cccc(-c2cc(COc3cc(C(N)=O)ccc3CC(=O)O)cc3ccoc23)c1F` [Compound 411e, 2-(2-((7-(3-(aminomethyl)-2-fluorophenyl)benzofuran-5-yl)methoxy)-4-carbamoylphenyl)acetic acid]: > 6.00.
